Results from PMC10126514, “The interaction of peptide inhibitors and Aβ protein: Binding mode analysis, inhibition of the formation of Aβ aggregates, and then exert neuroprotective effects” (Frontiers in Aging Neuroscience, 2023).
Entries after “also recorded” stand apart in the source; their conditions may differ. Residues, ends and D or L forms follow the SMILES beside them.

Key:
[1] = tested on: Aβ1–42 aggregation; experiment: ThT fluorescence, inhibition of Aβ1–42 aggregation; assay type: biochemical, Human; conditions: for ThT fluorescence intensity vs Aβ group: PBS, ex 440/em 480 nm
Method: ThT is a chemical fluorescent dye. […] Based on this fluorescence phenomenon, ThT is used as a kind of fluorescent indicator to detect the degree of aggregation of Aβ.
Take about 10 μL of the sample, dilute it 20 times with ThT solution, and read the fluorescence intensity value with a microplate reader, 440 nm is the excitation wavelength, and 480 nm is the emission wavelength, and the bandwidth is 5 nm. […] The sample was repeated five times and the average value was taken.

[2] = tested on: PC12 cells; assay type: cell-based, Rat
Method: Pipette the cultured cells in a cell culture flask repeatedly to make them evenly distributed. Use a pipete to pipete 10 μL of cell suspension and transfer to a cell counting plate for counting. Count under a microscope to calculate the number of living cells distributed in a large square composed of 16 squares on the cytometer. Cell density (pcs / mL) = (sum of cell count/4) × 10^4 Calculate the cell concentration, repeat counting 2–3 times for each sample (the value should not be too different each time, otherwise the operation should be repeated). If there are less than 5 cells in each large square, you need to re-centrifuge to adjust the cell concentration.
Use CCK-8 kit to detect cell viability, reflecting the cytotoxicity of peptide inhibitors themselves. The counted PC12 cells were plated at 100 μL/well (8 × 10^4 cells/well). After put the 96-well plate at 37°C for 12 h, discard the medium, add 100 μL of medium containing different concentrations of peptide inhibitors to each well, and continue to culture 24 h. […] The wells with DMEM medium solution containing no peptide inhibitors but containing cells were used as the control group.
Cell Viability(%)=ODadministration group−[…]ODcontrol group−ODblank group×100%

[3] = target: T1, Aβ1–42 (Homo sapiens, UniProt P05067); experiment: SPR affinity of peptide and Aβ1–42; assay type: binding; conditions: for Binding ability ranking by KD / Binding phase of SPR kinetic curve / Dissociation phase of SPR kinetic curve: SPR, qualitative
T1 construct: purchased GL Biochem Ltd. (Shanghai)
T1 sequence (P05067 672-713 limits assumed): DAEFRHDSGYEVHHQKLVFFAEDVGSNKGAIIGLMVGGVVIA
Method: Surface Plasmon Resonance (SPR) is a sensitive surface analysis technique that detects changes in dielectric constant caused by molecules adsorbed on heavy metal films. In this study, the 1-(3-Dimethylaminopropyl)-3-ethylcarbodiimide hydrochloride (EDC) and N-Hydroxy succinimide (NHS) in the coupling kit were, respectively, dissolved in 1 mL of activation buffer, divided into 10 parts, 100 μL/part, and stored at −20°C for later use. Before the experiment, first install the CM5 chip in the machine and wash it with HBS-EP buffer 3 times. […] After the experiment is over, use the Evaluation software to analyze the results, and use Flow Cell2 to subtract the background signal of channel 1 as the experimental result. The 1:1 binding method is used for fitting calculation and analysis of affinity parameters: binding rate constant ka (1/Ms), dissociation rate constant kd (1/s) and equilibrium dissociation constant KD (M), KD = kd/ ka, the smaller the KD value, the stronger the affinity.

[4] = tested on: PC12 cells; conditions: CCK-8, co-incubated with Aβ1–42 72 h
Method: Rat adrenal pheochromocytoma (PC12) cells were donated by Zhengzhou University School of Basic Medicine (#CRL-1721; RRID: CVCL-0481) in DMEM containing 10% fetal bovine serum, 1% penicillin and 1% streptomycin, culture in a cell incubator with 5% CO2 and 37°C, and passage once every 3 days.
Add 10 μL of CCK-8 solution to each well and continue to incubate for 2 h. Add 10 μL of CCK-8 solution to each well and continue to incubate for 2 h. The wells with normal DMEM medium and cell solution were used as the control group. The wells with 100 μL DMEM medium and 10 μL CCK-8 solution but no cells were used as the blank control, and the absorbance was measured at 450 nm.

[5] = tested on: PC12 cells; conditions: cited from earlier work
Description: Abnormally precipitated Aβ in amyloid plaques becomes one of the hallmark proteins of brain nerve damage in AD patients, and promotes the deterioration of AD. The accumulation of Aβ protein is caused by the interaction between the hydrophobic center and the C-terminal molecule ([Kapadia et al., 2021]). At present, the development of anti-Aβ aggregation compounds is a promising approach in the treatment of AD, and many clinical trials are ongoing. […] However, these peptides have high specificity and low toxicity, which will make them candidate drugs for peptide inhibitors against Aβ aggregation ([Fosgerau and Hoffmann, 2015]). Peptides designed by computer simulation and applied to Alzheimer’s disease are becoming more and more popular and welcomed by researchers. At present, the peptide inhibitors of Aβ aggregation include LVFF, KLVFF, KLVFF modified peptide (QKL ...

[6] = tested on: apoptosis caused by Aβ; conditions: ref Hadipour et al., 2020; cited from earlier work
Description: Abnormally precipitated Aβ in amyloid plaques becomes one of the hallmark proteins of brain nerve damage in AD patients, and promotes the deterioration of AD. The accumulation of Aβ protein is caused by the interaction between the hydrophobic center and the C-terminal molecule ([Kapadia et al., 2021]). At present, the development of anti-Aβ aggregation compounds is a promising approach in the treatment of AD, and many clinical trials are ongoing.

[7] = tested on: Aβ1–42 oligomerization; conditions: ref Takahashi and Mihara, 2008, cited from earlier work
Description: (§1) In recent years, through the emergence of peptides that inhibit the aggregation of Aβ, extensive research has been conducted on peptides for the treatment of Alzheimer’s disease. However, these peptides have high specificity and low toxicity, which will make them candidate drugs for peptide inhibitors against Aβ aggregation ([Fosgerau and Hoffmann, 2015]). Peptides designed by computer simulation and applied to Alzheimer’s disease are becoming more and more popular and welcomed by researchers. At present, the peptide inhibitors of Aβ aggregation include LVFF, KLVFF, KLVFF modified peptide (QKL ...

[8] = tested on: Aβ aggregation; conditions: cited from earlier work; for Aβ aggregation and toxicity: ref Cheng et al., 2012
Description: as §1

[9] = tested on: rat primary cortical neurons; set-up: method as in Pradhan et al., 2019; conditions: ref Pradhan et al., 2019; cited from earlier work
[10] = peptide 50 μM, Aβ1–42 25 μM, 37°C, 24 h, ThT
[11] = peptide 50 μM, Aβ1–42 25 μM, 37°C, 24 h, n = 5 mean

## CC(=O)N[C@@H](Cc1ccc(O)cc1)C(=O)N[C@H](C(=O)N[C@@H](CCCNC(=N)N)C(=O)N[C@@H](Cc1c[nH]cn1)C(=O)N[C@@H](Cc1c[nH]cn1)C(=O)N[C@@H](Cc1c[nH]cn1)C(=O)N[C@@H](Cc1ccc(O)cc1)C(=O)N[C@H](C(=O)N[C@@H](CCCNC(=N)N)C(=O)N[C@@H](Cc1c[nH]cn1)C(=O)N[C@@H](Cc1c[nH]cn1)C(=O)N[C@@H](Cc1c[nH]cn1)C(N)=O)C(C)C)C(C)C [P9] (Ac-YVRHHHYVRHHH-NH2)
[1]; [10]
  Inhibitory effect on Aβ aggregation: no inhibitory effect on Aβ aggregation
[1]; [11]
  ThT fluorescence intensity vs Aβ group: increased, but the difference is not statistically significant (p > 0.05)
[2]
  Cell viability at 6.25 μM: began to decrease significantly (p < 0.05)
  Cell viability at 25, 50, 100 and 200 μM: decreased significantly, with extremely significant differences (p < 0.01)
[3]
  Kd: 14 µM
  Binding ability ranking by KD: the weakest
  Binding phase of SPR kinetic curve: the curve rises steadily, and it takes a long time to reach saturation
  Dissociation phase of SPR kinetic curve: relatively slow in the dissociation phase

## CC(=O)N[C@@H](Cc1ccc(O)cc1)C(=O)N[C@H](C(=O)N[C@@H](CCCNC(=N)N)C(=O)N[C@@H](Cc1c[nH]cn1)C(=O)N[C@@H](CO)C(=O)N[C@H](C(=O)N[C@@H](Cc1ccc(O)cc1)C(=O)N[C@H](C(=O)N[C@@H](CCCNC(=N)N)C(=O)N[C@@H](Cc1c[nH]cn1)C(=O)N[C@@H](CO)C(=O)N[C@H](C(N)=O)C(C)C)C(C)C)C(C)C)C(C)C [P11] (Ac-YVRHSVYVRHSV-NH2)
[1]; [10]
  Inhibitory effect on Aβ aggregation: certain inhibitory ability on Aβ aggregation
[1]; [11]
  ThT fluorescence intensity vs Aβ group: decreased, but the difference was not statistically significant (p > 0.05)
[2]
  Cell viability at 3.125 μM: cell viability began to decrease significantly at low concentration (3.125 μM) of P11 (p < 0.05)
[3]
  Kd: 20.5 µM
  Binding phase of SPR kinetic curve: the curve rises steadily, and it takes a long time to reach saturation
  Dissociation phase of SPR kinetic curve: relatively slow in the dissociation phase

## CC(=O)N[C@@H](Cc1ccc(O)cc1)C(=O)N[C@H](C(=O)N[C@@H](CCCNC(=N)N)C(=O)N[C@@H](Cc1c[nH]cn1)C(=O)N[C@@H](CC(=O)O)C(=O)N[C@@H](CC(C)C)C(=O)N[C@@H](Cc1ccc(O)cc1)C(=O)N[C@H](C(=O)N[C@@H](CCCNC(=N)N)C(=O)N[C@@H](Cc1c[nH]cn1)C(=O)N[C@@H](CC(=O)O)C(=O)N[C@@H](CC(C)C)C(N)=O)C(C)C)C(C)C [P12] (Ac-YVRHDLYVRHDL-NH2)
[1]; [10]
  Inhibitory effect on Aβ aggregation: no inhibitory effect on Aβ aggregation
[1]; [11]
  ThT fluorescence intensity vs Aβ group: increased, but the difference is not statistically significant (p > 0.05)
[2]
  Cell viability at 6.25 μM: significant effect on the viability of PC12 cells at 6.25 μM (p < 0.05)
[3]
  Kd: 0.327 µM
  Binding ability ranking by KD: the strongest
  Binding phase of SPR kinetic curve: rises rapidly at the beginning of binding and reaches saturation in a short time
  Dissociation phase of SPR kinetic curve: the curve drops rapidly and the dissociation is completed

## CC(=O)N[C@@H](Cc1ccc(O)cc1)C(=O)N[C@H](C(=O)N[C@@H](CCCNC(=N)N)C(=O)N[C@@H](Cc1c[nH]cn1)C(=O)N[C@@H](CC(C)C)C(=O)N[C@@H](CCCCN)C(=O)N[C@@H](Cc1ccc(O)cc1)C(=O)N[C@H](C(=O)N[C@@H](CCCNC(=N)N)C(=O)N[C@@H](Cc1c[nH]cn1)C(=O)N[C@@H](CC(C)C)C(=O)N[C@@H](CCCCN)C(N)=O)C(C)C)C(C)C [P21] (Ac-YVRHLKYVRHLK-NH2)
[1]; incubated with Aβ1–42 at a ratio of 1:1, ThT, listed as YVRHLKYVRHLK
  Inhibitory effect on formation of Aβ1–42 aggregates at ratio 1:1: significant inhibitory effect on the formation of Aβ1–42 aggregates when incubated with Aβ1–42 at a ratio of 1:1 (p < 0.05)
[1]; [10]
  Inhibitory effect on Aβ aggregation: strong inhibitory ability on Aβ aggregation; also recorded: good inhibitory effect on the protein aggregation of Aβ1–42
[1]; peptide 50 μM, Aβ1–42 25 μM, 37°C, 24 h, ThT, n = 5 mean, Aβ alone = 100% fluorescence
  Inhibition of Aβ1–42 aggregation: 100%
[1]; [11]
  ThT fluorescence intensity vs Aβ group: significantly lower than that of the Aβ group (p < 0.05)
[2]
  Cell viability at 25 μM: significantly reduced at 25 μM (p < 0.05)
  Toxicity to PC12 cells at 50 μM: less toxic to PC12 cells at a concentration of 50 μM
[3]
  Kd: 53.8 µM
  Binding phase of SPR kinetic curve: rises rapidly at the beginning, but slowly reaches saturation in the following time, and the binding rate is faster
  Dissociation phase of SPR kinetic curve: dissociates relatively quickly
[4]; after ratio 1:1, increasing P21 (1:2, 1:4)
  Cell viability at ratios above 1:1 (1:2, 1:4): cell viability continued to increase
[4]; ratio 1:4
  Cell viability at ratio 1:4: reaching the maximum at 1:4, which was close to the normal level

## CC(C)=CCC[C@@H](C)[C@H]1CC[C@@]2(C)C3=C(CC[C@]12C)[C@@]1(C)CC[C@H](O)C(C)(C)[C@@H]1CC3 [lanosterol]
[5]; ref Zhou et al., 2019
  Aβ-induced cytotoxicity in PC12 cells: reduce the Aβ-induced cytotoxicity in PC12 cells

## CC(C)=CCC/C(C)=C/CC/C(C)=C/CC/C(C)=C/CC1=C(C)C(=O)c2ccccc2C1=O [vitamin K2]
[6]
  Apoptosis caused by Aβ accumulation: significantly reduced
  Ratio of Bax/Bcl-2: decreased

## Ac-KQKLLLFLEE-NH2
[7]; co-assembles with mature Aβ1–42 fibrils
  Aβ1–42 oligomerization: effectively inhibit Aβ1–42 oligomerization
[7]
  Self-assembly: form amyloid fibrils

## H2N-KLVFF (4-I) -CONH2 [iodinated KLVFF]
[8]; 10 μM peptide, 10 μM Aβ, 1:1, ref Khalili Samani and Mofid, 2020
  Anti-aggregation activity vs other halogenated peptides: show the best resistance compared to other halogenated peptides

## KLVFFAE [amyloid β-sheet mimics ; KLVFFAE (Aβ16–22)]
[8]
  Aβ aggregation and toxicity: antagonizing Aβ protein aggregation and reducing Aβ toxicity

## LFFFAED [amyloid β-sheet mimics ; LFFFAED (Aβ17–23)]
[8]
  Aβ aggregation and toxicity: antagonizing Aβ protein aggregation and reducing Aβ toxicity

## QKLVFF
[8]; ref Findeis et al., 1999
  Formation of Aβ fibers: inhibiting the formation of Aβ fibers

## Ser-Leu-Lys-Pro [SLKP, tetrapeptide]
[9]
  Neurite growth: promoted significant neurite growth
  Neuroprotection against Aβ-mediated toxicity: significant neuroprotection against Aβ-mediated toxicity

## pituitary adenylate cyclase activating polypeptide [PACAP]
[5]; ref Onoue et al., 2002
  Aβ-induced cell death in PC12 cells: attenuates Aβ-induced cell death in PC12 cells by increasing cAMP
  Caspase-3: inactivation of apoptotic factor (caspase-3)
